Measurements as given in patent US12264170B2, “Antimicrobial organosilanes” (TOPIKOS SCIENTIFIC, INC., priority 2019, dated 2025).
≈ marks a conversion by molar mass, not a printed value.

Key:
Assay type in all cases: cell-based
[1] = tested on: Cladosporium herbarum ATCC MYA-4682; assay: MIC microdilution assay; conditions: Cladosporium herbarum; C. herbarum ATCC MYA-4682; RPMI media; 25±2° C. 3 to 5 days; two values given; read-out: MIC
Description: Strain numbers starting with “ATCC” were acquired from the American Type Culture Collection (Manassas, VA), while strain numbers starting with “CDC” were acquired from the Centers for Disease Control and Prevention (Atlanta, GA). All strains were maintained as −80° C. frozen glycerol stocks. S. aureus and P. aeruginosa were grown overnight on Tryptic Soy Agar (TSA) plates at 35±2° C., ambient atmosphere, while S. pyogenes was grown overnight on TSA+5% defibrinated sheep blood at 35±2° C., 5% CO2. All fungal species (i.e. C. albicans, C. auris and C. herbarum) were grown on Sabouraud Dextrose Agar (SDA) plates. C. herbarum was grown at 25±2° C. for 5 to 7 days, while all other fungal strains were grown at 35±2° C. overnight.
Test articles Compound 2 (batch #2G13A0.368) and Compound 23 (batch #2G17A0.372) were received and stored at 4° C. The antibiotic Tobramycin and antifungal Amphotericin B were used as quality control (QC) compounds for the MIC assay. […]
All bacterial-strain MIC 96-well plates were incubated at 35±2° C. for 18 to 20 hours, while all Candida MIC 96-well plates were incubated at 35±2° C. for 24 to 48 hours. […] After incubation, the 96-well plates were examined visually and on a spectrophotometer at absorbance OD650. […]

[2] = tested on: Acinetobacter baumannii Eurofins 1674627; assay: MIC microdilution assay (Example 32); conditions: Acinetobacter baumannii; A. baumannii Eurofins 1674627; 35±2° C. 18 to 20 hours; two values given; read-out: MIC
Description: (§1) Strain IDs starting with “ATCC” were acquired from the American Type Culture Collection (Manassas, VA), strain IDs starting with “Eurofins” were acquired from Eurofins (Herndon, VA), while strain IDs starting with “CDC” were acquired from the Centers for Disease Control and Prevention (Atlanta, GA). All strains were maintained as −80° C. frozen glycerol stocks. S. aureus and P. aeruginosa were grown overnight on Tryptic Soy Agar (TSA) plates at 35±2° C., ambient atmosphere, while S. pyogenes was grown overnight on TSA+5% defibrinated sheep blood at 35±2° C., 5% CO2. C. jejuni was grown for 48 hours on TSA+5% defibrinated sheep blood at 35±2° C., in a microaerophilic environment generated by CampyGen sachet. All fungal species (i.e. C. albicans and C. auris) were grown overnight on Sabouraud Dextrose Agar (SDA) plates at 35±2° C., ambient atmosphere.
(§2) Test article Compound 1 (batch #7G30A9.203) was stored at 4° C. The antibiotic Tobramycin and antifungal Amphotericin B were used as quality control (QC) compounds for the MIC assay. Stock solutions of 3.2 mg/mL Tobramycin (Sigma-Aldrich, cat #T1783-500MG) and 3.2 mg/mL Amphotericin B (CP Lab Chemicals, cat #TOK-A007-1G) were prepared in sterile ultrapure water.
(§3) For bacteria strains, a few colonies of each strain were collected with a sterile swab and used to make a McFarland 0.5 standard solution (approximately 1×10^8 CFU/mL) in sterile PBS. The McFarland was then diluted 1:180 in Cation Adjusted Muller-Hinton Broth (CAMHB) for S. aureus and P. aeruginosa. S. pyogenes McFarland was diluted 1:180 in CAMHB+5% defibrinated sheep blood, while C. jejuni McFarland was diluted 1:180 in CAMHB+5% laked horse blood. 90 μL of this inoculum was combined with 10 μL of the 10× test article in a 96-well plate for a final concentration of 1×.
(§4) Except for C. jejuni, all bacterial-strain MIC 96-well plates were incubated at 35±2° C. for 18 to 20 hours, ambient atmosphere. C. jejuni was incubated at 35±2° C. for 48 hours, under microaerophilic condition. All Candida MIC 96-well plates were incubated at 35±2° C. for 24 to 48 hours, ambient atmosphere, until growth in control wells were observed. After incubation, the 96-well plates were examined visually and on a spectrophotometer at absorbance OD650. MIC is defined as the lowest concentration of a compound in which no visible growth is observed.

[3] = tested on: Pseudomonas aeruginosa ATCC 27853; assay: MIC microdilution assay (Example 32); conditions: Pseudomonas aeruginosa, ATCC27853; P. aeruginosa ATCC 27853 (quality control); CAMHB; 35±2° C. 18 to 20 hours; two values given; read-out: MIC
Description: as §1, §2, §3, §4

[4] = tested on: Campylobacter jejuni CDC 0413; assay: MIC microdilution assay (Example 32); conditions: Campylobacter jejuni, CDC0413; C. jejuni CDC 0413; CAMHB+5% laked horse blood; 35±2° C. 48 hours, microaerophilic; two values given; read-out: MIC
Description: as §1, §2, §3, §4

[5] = tested on: Pseudomonas aeruginosa Eurofins 1674623; assay: MIC microdilution assay (Example 32); conditions: Pseudomonas aeruginosa; P. aeruginosa Eurofins 1674623; CAMHB; 35±2° C. 18 to 20 hours; two values given; read-out: MIC
Description: as §1, §2, §3, §4

[6] = tested on: Pseudomonas aeruginosa CDC 0248; assay: MIC microdilution assay (Example 32); conditions: Pseudomonas aeruginosa, CDC0248; P. aeruginosa CDC 0248; CAMHB; 35±2° C. 18 to 20 hours; two values given; read-out: MIC
Description: as §1, §2, §3, §4

[7] = tested on: Streptococcus pyogenes Eurofins 2065755; assay: MIC microdilution assay (Example 32); conditions: Streptococcus pyogenes; S. pyogenes Eurofins 2065755; CAMHB+5% defibrinated sheep blood; 35±2° C. 18 to 20 hours; two values given; read-out: MIC
Description: as §1, §2, §3, §4

NC[C@H]1O[C@H](O[C@H]2[C@H](O)[C@@H](O[C@H]3O[C@H](CO)[C@@H](O)[C@H](N)[C@H]3O)[C@H](N)C[C@@H]2N)[C@H](N)C[C@@H]1O [Tobramycin]
MIC [1]: > 32 µg/mL | MIC [2]: 1 µg/mL (≈ 2.14 µM) | MIC [3]: 0.25 µg/mL (≈ 0.535 µM) | MIC [4]: > 32 µg/mL | MIC [5]: > 32 µg/mL | MIC [6]: > 32 µg/mL | MIC [7]: 16 µg/mL (≈ 34.2 µM)
